Reference: PMC10374545, “A small molecule inhibitor of PTP1B and PTPN2 enhances T cell anti-tumor immunity” (Nature Communications, 2023)
Where “and” joins values, the source holds several entries; their conditions need not be identical. Equal values may be shown once.

Assays:
[1] = tested on: AT3-OVA mammary tumors; experiment: AT3-OVA mammary tumor growth in C57BL/6 mice; format: in vivo, mouse; conditions: in mm2; for Tumour growth, individual mice: C57BL/6, CMP-182 10 mg, Figure 5A; for Tumour growth, single mice: 10 mg/kg i.v., sizes in mm^2, Fig. 3A, listed as CMP-182, 10 mg/kg
Protocol: Male or female mice were injected subcutaneously with 5 × 10^5 MC38 tumor cells resuspended in 100 μl D-PBS into the flank. Alternatively, female mice were injected orthotopically with 5 × 10^5 AT3 or AT3-OVA or PTPN2-deleted AT3 or AT3-OVA tumor cells resuspended in 20 μl D-PBS into the fourth mammary fat pad. Tumor sizes were measured in two dimensions (mm^2) using electronic callipers two to three times per week as soon as tumors were palpable (20–25 mm^2).

[2] = Serum cytokines (BD Cytokine Bead Array) in AT3-OVA tumor-bearing mice; format: in vivo, mouse
Protocol: Single-cell suspensions from spleens and lymph nodes were obtained as described previously. For the detection of intracellular cytokines and granzyme B, T cells were fixed and permeabilized with the BD Cytofix/Cytoperm kit according to the manufacturer’s instructions. Briefly, T cells were first surface stained with fluorophore-conjugated antibodies and then fixed followed by permeabilization on ice for 20 min. Fixed and permeabilized cells were stained for IFN-γ, TNF, and granzyme B for 45 min at room temperature. For the detection of intracellular FoxP3 the Foxp3/Transcription Factor Staining Buffer Set (eBioscience) was used according to the manufacturer’s instructions. Briefly, cells were fixed and permeabilized for 1 h on ice followed by intracellular staining at room temperature for 45 min. For the detection of serum cytokines, the BD CBA Mouse Inflammation Kit™ was used according to the manufacturers’ instructions.

[3] = target: T1, PTP1B (Homo sapiens, UniProt P18031); experiment: Jump-dilution assay; format: biochemical; conditions: 30 min preincubation, 50-fold dilution into 100 µM DiFMUP
T1 construct: PTP1B, residues 1-321; made in house; host or cells: E. coli BL21(DE3)
T1 sequence (P18031 1-321): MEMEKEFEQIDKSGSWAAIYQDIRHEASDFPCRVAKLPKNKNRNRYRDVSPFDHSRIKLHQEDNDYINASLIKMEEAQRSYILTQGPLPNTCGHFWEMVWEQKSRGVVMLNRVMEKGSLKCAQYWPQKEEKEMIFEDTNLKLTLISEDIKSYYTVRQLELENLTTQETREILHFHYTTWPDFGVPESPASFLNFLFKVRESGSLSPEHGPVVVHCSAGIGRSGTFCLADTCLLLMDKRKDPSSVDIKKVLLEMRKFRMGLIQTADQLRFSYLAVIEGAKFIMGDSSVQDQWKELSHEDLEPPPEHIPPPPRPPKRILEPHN
Protocol: (§1) The reaction was allowed to proceed for 10 min under room temperature and was quenched by addition of a 160 µM solution of bpV(Phen). The fluorescence signal was measured using a CLARIOstar Plus Microplate Spectrophotometer (BMG Labtech) using excitation and emission wavelengths of 340 nm and 450 nm, respectively. Data were fitted using Prism GraphPad 9.2.0.

[4] = target: T2, PTPN2 (Homo sapiens, UniProt P17706); experiment: Jump-dilution assay; format: biochemical; conditions: 30 min preincubation, 50-fold dilution into 100 µM DiFMUP
T2 construct: PTPN2, residues 1-387; made in house; host or cells: E. coli BL21(DE3)
T2 sequence (P17706 1-387 isoform P17706-2): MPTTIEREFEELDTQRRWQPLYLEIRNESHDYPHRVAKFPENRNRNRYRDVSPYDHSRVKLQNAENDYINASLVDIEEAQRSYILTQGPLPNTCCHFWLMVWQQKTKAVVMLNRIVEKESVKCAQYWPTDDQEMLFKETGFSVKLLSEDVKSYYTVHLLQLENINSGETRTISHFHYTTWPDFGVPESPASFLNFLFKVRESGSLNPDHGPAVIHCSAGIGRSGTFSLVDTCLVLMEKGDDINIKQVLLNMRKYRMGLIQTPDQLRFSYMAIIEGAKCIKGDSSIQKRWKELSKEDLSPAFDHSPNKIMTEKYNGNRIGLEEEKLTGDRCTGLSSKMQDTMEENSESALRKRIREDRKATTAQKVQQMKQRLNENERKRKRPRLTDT
Protocol: as §1

[5] = Figure 10A, serum, individual mice, listed as CMP-182, in pg/mL (unit assumed)

Compound: CC(C)(O)CCOc1ccc2cc(O)c(N3CC(=O)NS3(=O)=O)c(F)c2c1 [Compound 182, 5-(1-Fluoro-3-hydroxy-7-(3-hydroxy-3-methylbutoxy)naphthalen-2-yl)−1,2,5-thiadiazolidin-3-one 1,1-dioxide]
- Tumour growth, individual mice ([1]; n=8, day 4 post injection): 40.6 and 37.95 and 45.6 and 22.4 and 21.42 and 37.21 and 29.5 and 55.61
- Tumour growth, individual mice ([1]; n=8, day 7 post injection): 35.1 and 40.02 and 49.4 and 25.2 and 27.54 and 44.85 and 32.5 and 53.6
- Tumour growth, individual mice ([1]; n=8, day 9 post injection): 40.2 and 41.76 and 56.44 and 28.35 and 33.04 and 52.56 and 37.95 and 65.25
- Tumour growth, individual mice ([1]; n=8, day 12 post injection): 40.8 and 47.74 and 66.43 and 30.15 and 33.63 and 55.5 and 42 and 70.2
- Tumour growth, individual mice ([1]; n=8, day 15 post injection): 42 and 55.44 and 75.75 and 31.5 and 34.22 and 60.84 and 45.26 and 76
- Tumour size AT-3-OVA (group mean) ([1]; C57BL/6 n=8, time point 6): 21.8
- Tumour size AT-3-OVA (group mean) ([1]; C57BL/6 n=8, time point 8): 21.97
- Tumour size AT-3-OVA (group mean) ([1]; C57BL/6 n=8, time point 10): 23.3
- Tumour size AT-3-OVA (group mean) ([1]; C57BL/6 n=8, time point 13): 25.76
- Tumour size AT-3-OVA (group mean) ([1]; C57BL/6 n=8, time point 15): 29.09
- Tumour size AT-3-OVA (group mean) ([1]; C57BL/6 n=8, time point 17): 31.79
- Tumour size AT-3-OVA (group mean) ([1]; C57BL/6 n=8, time point 19): 33.9
- Tumour size AT-3-OVA (group mean) ([1]; C57BL/6 n=8, time point 21): 36.99
- Tumour size AT-3-OVA (group mean) ([1]; C57BL/6 n=8, time point 23): 41.18
- Tumour size AT-3-OVA, mean over all time points ([1]; C57BL/6 n=8, two-way RM ANOVA column mean): 29.53
- Tumour growth, single mice ([1]; day 6 post injection (first dose)): 22.54 and 20.7 and 19.36 and 20.25 and 18.49 and 22.09 and 26.95 and 24
- Tumour growth, single mice ([1]; day 8 post injection): 22.08 and 20.7 and 20.68 and 20.91 and 19.78 and 21.15 and 25.97 and 24.48
- Tumour growth, single mice ([1]; day 10 post injection): 27.56 and 22.95 and 17.6 and 23.1 and 20.64 and 23.04 and 23.65 and 27.84
- Tumour growth, single mice ([1]; day 15 post injection): 37.95 and 25.76 and 21.12 and 24.36 and 20.64 and 28.62 and 35.75 and 38.5
- Tumour growth, single mice ([1]; day 23 post injection): 43.55 and 30 and 34.02 and 32.76 and 29.15 and 54.51 and 48.18 and 57.27
- serum levels of pro-inflammatory cytokines IL-6, IFNγ and TNF ([2]; 10 mg/kg i.v.): not significantly increased
- Serum IFNg 2nd cohort, median ([2]; Figure 10A, median, n=8): 10.56, n=8
- Serum IL-6 2nd cohort, median ([2]; Figure 10A, median, n=8): 8.881, n=8
- Serum TNF 2nd cohort, median ([2]; Figure 10A, median, n=8): 15.88, n=8
- IFN g [2, 5]: 8.688 and 8.172 and 5.3329 and 65.9781 and 16.5587 and 24.0426 and 12.4297 and 4.946
- IL-6 [2, 5]: 14.2361 and 23.6555 and 10.1071 and 7.655 and 5.591 and 5.72 and 7.01 and 68.8168
- TNF [2, 5]: 7.107 and 11.4953 and 23.094 and 50.0533 and 23.4075 and 14.0031 and 17.7649 and 12.4357
- reversibility of inhibition [3]: reversible
- reversibility of inhibition [4]: reversible
